In ChEMBL document CHEMBL1671627, “Increasing trends in antimicrobial resistance among clinically important anaerobes and Bacteroides fragilis isolates causing nosocomial infections: emerging resistance to carbapenems” (2008):
≈ marks a conversion by molar mass, not a printed value.

How the values were obtained:
Bacteroides fragilis [1] = assay: Antibacterial activity against Bacteroides fragilis assessed as susceptible isolates by CLSI agar dilution method; type: functional
Bacteroides fragilis [2] = assay: Antibacterial activity against Bacteroides fragilis assessed as resistant isolates by CLSI agar dilution method; type: functional
[3] = tested on: Bacteroides thetaiotaomicron; assay: Antibacterial activity against beta-lactamase producing Bacteroides thetaiotaomicron assessed as susceptible isolates by CLSI agar dilution method; type: functional
[4] = tested on: Bacteroides thetaiotaomicron; assay: Antibacterial activity against beta-lactamase producing Bacteroides thetaiotaomicron assessed as resistant isolates by CLSI agar dilution method; type: functional
Phocaeicola vulgatus [5] = assay: Antibacterial activity against beta-lactamase producing Bacteroides vulgatus by CLSI agar dilution method; type: functional
Phocaeicola vulgatus [6] = assay: Antibacterial activity against beta-lactamase producing Bacteroides vulgatus assessed as susceptible isolates by CLSI agar dilution method; type: functional
Phocaeicola vulgatus [7] = assay: Antibacterial activity against beta-lactamase producing Bacteroides vulgatus assessed as resistant isolates by CLSI agar dilution method; type: functional
Bacteroides uniformis [8] = assay: Antibacterial activity against beta-lactamase producing Bacteroides uniformis by CLSI agar dilution method; type: functional
Bacteroides uniformis [9] = assay: Antibacterial activity against beta-lactamase producing Bacteroides uniformis assessed as susceptible isolates by CLSI agar dilution method; type: functional
Bacteroides uniformis [10] = assay: Antibacterial activity against beta-lactamase producing Bacteroides uniformis assessed as resistant isolates by CLSI agar dilution method; type: functional
Bacteroides caccae [11] = assay: Antibacterial activity against beta-lactamase producing Bacteroides caccae by CLSI agar dilution method; type: functional
Bacteroides caccae [12] = assay: Antibacterial activity against beta-lactamase producing Bacteroides caccae assessed as susceptible isolates by CLSI agar dilution method; type: functional
Bacteroides caccae [13] = assay: Antibacterial activity against beta-lactamase producing Bacteroides caccae assessed as resistant isolates by CLSI agar dilution method; type: functional
Fusobacterium varium [14] = assay: Antibacterial activity against Fusobacterium varium by CLSI agar dilution method; type: functional
Fusobacterium nucleatum [15] = assay: Antibacterial activity against Fusobacterium nucleatum by CLSI agar dilution method; type: functional
Fusobacterium mortiferum [16] = assay: Antibacterial activity against Fusobacterium mortiferum by CLSI agar dilution method; type: functional
[17] = tested on: Fusobacterium necrophorum; assay: Antibacterial activity against Fusobacterium necrophorum by CLSI agar dilution method; type: functional
Fusobacterium varium [18] = assay: Antibacterial activity against Fusobacterium varium assessed as susceptible isolates by CLSI agar dilution method; type: functional
Fusobacterium nucleatum [19] = assay: Antibacterial activity against Fusobacterium nucleatum assessed as susceptible isolates by CLSI agar dilution method; type: functional
Fusobacterium mortiferum [20] = assay: Antibacterial activity against Fusobacterium mortiferum assessed as susceptible isolates by CLSI agar dilution method; type: functional
[21] = tested on: Fusobacterium necrophorum; assay: Antibacterial activity against Fusobacterium necrophorum assessed as susceptible isolates by CLSI agar dilution method; type: functional
Fusobacterium varium [22] = assay: Antibacterial activity against Fusobacterium varium assessed as resistant isolates by CLSI agar dilution method; type: functional
Fusobacterium nucleatum [23] = assay: Antibacterial activity against Fusobacterium nucleatum assessed as resistant isolates by CLSI agar dilution method; type: functional
Fusobacterium mortiferum [24] = assay: Antibacterial activity against Fusobacterium mortiferum assessed as resistant isolates by CLSI agar dilution method; type: functional
[25] = tested on: Fusobacterium necrophorum; assay: Antibacterial activity against Fusobacterium necrophorum assessed as resistant isolates by CLSI agar dilution method; type: functional
Prevotella buccae [26] = assay: Antibacterial activity against Prevotella buccae by CLSI agar dilution method; type: functional; conditions: Segatella buccae
Prevotella bivia [27] = assay: Antibacterial activity against Prevotella bivia by CLSI agar dilution method; type: functional
Prevotella intermedia [28] = assay: Antibacterial activity against Prevotella intermedia by CLSI agar dilution method; type: functional
[29] = tested on: Prevotella melaninogenica; assay: Antibacterial activity against Prevotella melaninogenica by CLSI agar dilution method; type: functional
Prevotella buccae [30] = assay: Antibacterial activity against Prevotella buccae assessed as susceptible isolates by CLSI agar dilution method; type: functional, Segatella buccae
Prevotella bivia [31] = assay: Antibacterial activity against Prevotella bivia assessed as susceptible isolates by CLSI agar dilution method; type: functional
Prevotella intermedia [32] = assay: Antibacterial activity against Prevotella intermedia assessed as susceptible isolates by CLSI agar dilution method; type: functional
[33] = tested on: Prevotella melaninogenica; assay: Antibacterial activity against Prevotella melaninogenica assessed as susceptible isolates by CLSI agar dilution method; type: functional
Prevotella buccae [34] = assay: Antibacterial activity against Prevotella buccae assessed as resistant isolates by CLSI agar dilution method; type: functional, Segatella buccae
Prevotella bivia [35] = assay: Antibacterial activity against Prevotella bivia assessed as resistant isolates by CLSI agar dilution method; type: functional
Prevotella intermedia [36] = assay: Antibacterial activity against Prevotella intermedia assessed as resistant isolates by CLSI agar dilution method; type: functional
[37] = tested on: Prevotella melaninogenica; assay: Antibacterial activity against Prevotella melaninogenica assessed as resistant isolates by CLSI agar dilution method; type: functional
Veillonella parvula = assay: Antibacterial activity against Veillonella parvula by CLSI agar dilution method; type: functional
Clostridium perfringens = assay: microbe, parasite or virus in culture; type: functional
[38] = tested on: Clostridium paraputrificum; assay: Antibacterial activity against beta-lactamase producing Clostridium paraputrificum by CLSI agar dilution method; type: functional
Clostridium septicum [39] = assay: Antibacterial activity against beta-lactamase producing Clostridium septicum by CLSI agar dilution method; type: functional
Clostridium tertium [40] = assay: Antibacterial activity against beta-lactamase producing Clostridium tertium by CLSI agar dilution method; type: functional
[41] = tested on: Clostridium paraputrificum; assay: Antibacterial activity against beta-lactamase producing Clostridium paraputrificum assessed as susceptible isolates by CLSI agar dilution method; type: functional
Clostridium septicum [42] = assay: Antibacterial activity against beta-lactamase producing Clostridium septicum assessed as susceptible isolates by CLSI agar dilution method; type: functional
Clostridium tertium [43] = assay: Antibacterial activity against beta-lactamase producing Clostridium tertium assessed as susceptible isolates by CLSI agar dilution method; type: functional
Bacteroides fragilis [44] = assay: Antibacterial activity against Bacteroides fragilis by CLSI agar dilution method; type: functional
[45] = tested on: Bacteroides thetaiotaomicron; assay: Antibacterial activity against beta-lactamase producing Bacteroides thetaiotaomicron by CLSI agar dilution method; type: functional
[46] = tested on: Clostridium paraputrificum; assay: Antibacterial activity against beta-lactamase producing Clostridium paraputrificum assessed as resistant isolates by CLSI agar dilution method; type: functional
Clostridium septicum [47] = assay: Antibacterial activity against beta-lactamase producing Clostridium septicum assessed as resistant isolates by CLSI agar dilution method; type: functional
Clostridium tertium [48] = assay: Antibacterial activity against beta-lactamase producing Clostridium tertium assessed as resistant isolates by CLSI agar dilution method; type: functional
[49] = tested on: Peptostreptococcus anaerobius; assay: Antibacterial activity against beta-lactamase producing Peptostreptococcus anaerobius by CLSI agar dilution method; type: functional
[50] = tested on: Peptostreptococcus anaerobius; assay: Antibacterial activity against beta-lactamase producing Peptostreptococcus anaerobius assessed as susceptible isolates by CLSI agar dilution method; type: functional
[51] = tested on: Peptostreptococcus anaerobius; assay: Antibacterial activity against beta-lactamase producing Peptostreptococcus anaerobius assessed as resistant isolates by CLSI agar dilution method; type: functional
Parvimonas micra [52] = assay: Antibacterial activity against beta-lactamase producing Micromonas micros by CLSI agar dilution method; type: functional
Parvimonas micra [53] = assay: Antibacterial activity against beta-lactamase producing Micromonas micros assessed as susceptible isolates by CLSI agar dilution method; type: functional
Parvimonas micra [54] = assay: Antibacterial activity against beta-lactamase producing Micromonas micros assessed as resistant isolates by CLSI agar dilution method; type: functional
[55] = tested on: Peptoniphilus asaccharolyticus; assay: Antibacterial activity against beta-lactamase producing Peptoniphilus asaccharolyticus by CLSI agar dilution method; type: functional
[56] = tested on: Peptoniphilus asaccharolyticus; assay: Antibacterial activity against beta-lactamase producing Peptoniphilus asaccharolyticus assessed as susceptible isolates by CLSI agar dilution method; type: functional
[57] = tested on: Peptoniphilus asaccharolyticus; assay: Antibacterial activity against beta-lactamase producing Peptoniphilus asaccharolyticus assessed as resistant isolates by CLSI agar dilution method; type: functional
Finegoldia magna [58] = assay: Antibacterial activity against beta-lactamase producing Finegoldia magna by CLSI agar dilution method; type: functional
Finegoldia magna [59] = assay: Antibacterial activity against beta-lactamase producing Finegoldia magna assessed as susceptible isolates by CLSI agar dilution method; type: functional
Finegoldia magna [60] = assay: Antibacterial activity against beta-lactamase producing Finegoldia magna assessed as resistant isolates by CLSI agar dilution method; type: functional

O=C(N[C@H](CO)[C@H](O)c1ccc([N+](=O)[O-])cc1)C(Cl)Cl [CHLORAMPHENICOL] showed an Activity (Bacteroides fragilis [1]) of 97%, an Activity (Bacteroides fragilis [2]) of 3% and an Activity [3] of 97%. The Activity [4] was 0%, the MIC50 (Phocaeicola vulgatus [5]) was 4 µg/mL (≈ 12.4 µM) and the MIC90 (Phocaeicola vulgatus [5]) was 8 µg/mL (≈ 24.8 µM). It also gave an Activity (Phocaeicola vulgatus [6]) of 96%, an Activity (Phocaeicola vulgatus [7]) of 4% and an MIC50 (Bacteroides uniformis [8]) of 4 µg/mL (≈ 12.4 µM). It also gave an MIC90 (Bacteroides uniformis [8]) of 8 µg/mL (≈ 24.8 µM), an Activity (Bacteroides uniformis [9]) of 96% and an Activity (Bacteroides uniformis [10]) of 4%. It also gave an MIC50 (Bacteroides caccae [11]) of 4 µg/mL (≈ 12.4 µM), an MIC90 (Bacteroides caccae [11]) of 8 µg/mL (≈ 24.8 µM) and an Activity (Bacteroides caccae [12]) of 96%. It also gave an Activity (Bacteroides caccae [13]) of 4%, an MIC50 (Fusobacterium varium [14]) of 2 µg/mL (≈ 6.19 µM) and an MIC90 (Fusobacterium varium [14]) of 2 µg/mL (≈ 6.19 µM). The MIC50 (Fusobacterium nucleatum [15]) was 2 µg/mL (≈ 6.19 µM), the MIC90 (Fusobacterium nucleatum [15]) was 2 µg/mL (≈ 6.19 µM) and the MIC50 (Fusobacterium mortiferum [16]) was 2 µg/mL (≈ 6.19 µM). For the same molecule, the MIC90 (Fusobacterium mortiferum [16]) was 2 µg/mL (≈ 6.19 µM), the MIC50 [17] was 2 µg/mL (≈ 6.19 µM) and the MIC90 [17] was 2 µg/mL (≈ 6.19 µM). It also gave an Activity (Fusobacterium varium [18]) of 96%, an Activity (Fusobacterium nucleatum [19]) of 96% and an Activity (Fusobacterium mortiferum [20]) of 96%. For the same molecule, the Activity [21] was 96%, the Activity (Fusobacterium varium [22]) was 4% and the Activity (Fusobacterium nucleatum [23]) was 4%. It also gave an Activity (Fusobacterium mortiferum [24]) of 4%, an Activity [25] of 4% and an MIC50 (Prevotella buccae [26]) of 4 µg/mL (≈ 12.4 µM). For the same molecule, the MIC90 (Prevotella buccae [26]) was 8 µg/mL (≈ 24.8 µM), the MIC50 (Prevotella bivia [27]) was 4 µg/mL (≈ 12.4 µM) and the MIC90 (Prevotella bivia [27]) was 8 µg/mL (≈ 24.8 µM). For the same molecule, the MIC50 (Prevotella intermedia [28]) was 4 µg/mL (≈ 12.4 µM), the MIC90 (Prevotella intermedia [28]) was 8 µg/mL (≈ 24.8 µM) and the MIC50 [29] was 4 µg/mL (≈ 12.4 µM). It also gave an MIC90 [29] of 8 µg/mL (≈ 24.8 µM), an Activity (Prevotella buccae [30]) of 100% and an Activity (Prevotella bivia [31]) of 100%. The Activity (Prevotella intermedia [32]) was 100%, the Activity [33] was 100% and the Activity (Prevotella buccae [34]) was 0%. It also gave an Activity (Prevotella bivia [35]) of 0%, an Activity (Prevotella intermedia [36]) of 0% and an Activity [37] of 0%. For the same molecule, the MIC (Veillonella parvula) was 1 µg/mL (≈ 3.09 µM), the MIC50 (Clostridium perfringens) was 4 µg/mL (≈ 12.4 µM) and the MIC90 (Clostridium perfringens) was 8 µg/mL (≈ 24.8 µM). For the same molecule, the MIC50 [38] was 4 µg/mL (≈ 12.4 µM), the MIC90 [38] was 8 µg/mL (≈ 24.8 µM) and the MIC50 (Clostridium septicum [39]) was 4 µg/mL (≈ 12.4 µM). It also gave an MIC90 (Clostridium septicum [39]) of 8 µg/mL (≈ 24.8 µM), an MIC50 (Clostridium tertium [40]) of 4 µg/mL (≈ 12.4 µM) and an MIC90 (Clostridium tertium [40]) of 8 µg/mL (≈ 24.8 µM). The Activity [41] was 89%, the Activity (Clostridium septicum [42]) was 89% and the Activity (Clostridium tertium [43]) was 89%. It also gave an MIC50 (Bacteroides fragilis [44]) of 4 µg/mL (≈ 12.4 µM), an MIC90 (Bacteroides fragilis [44]) of 8 µg/mL (≈ 24.8 µM) and an MIC [45] of 4 µg/mL (≈ 12.4 µM). The MIC50 [45] was 4 µg/mL (≈ 12.4 µM), the MIC90 [45] was 8 µg/mL (≈ 24.8 µM) and the Activity [46] was 0%. It also gave an Activity (Clostridium septicum [47]) of 0%, an Activity (Clostridium tertium [48]) of 0% and an MIC [49] of 1 µg/mL (≈ 3.09 µM). It also gave an MIC50 [49] of 1 µg/mL (≈ 3.09 µM), an MIC90 [49] of 4 µg/mL (≈ 12.4 µM) and an Activity [50] of 94%. It also gave an Activity [51] of 6%, an MIC (Parvimonas micra [52]) of 1 µg/mL (≈ 3.09 µM) and an MIC50 (Parvimonas micra [52]) of 1 µg/mL (≈ 3.09 µM). It also gave an MIC90 (Parvimonas micra [52]) of 4 µg/mL (≈ 12.4 µM), an Activity (Parvimonas micra [53]) of 94% and an Activity (Parvimonas micra [54]) of 6%. The MIC [55] was 1 µg/mL (≈ 3.09 µM), the MIC50 [55] was 1 µg/mL (≈ 3.09 µM) and the MIC90 [55] was 4 µg/mL (≈ 12.4 µM). The Activity [56] was 94%, the Activity [57] was 6% and the MIC (Finegoldia magna [58]) was 1 µg/mL (≈ 3.09 µM). For the same molecule, the MIC50 (Finegoldia magna [58]) was 1 µg/mL (≈ 3.09 µM), the MIC90 (Finegoldia magna [58]) was 4 µg/mL (≈ 12.4 µM) and the Activity (Finegoldia magna [59]) was 94%. It also gave an Activity (Finegoldia magna [60]) of 6%.
